Seven molecules from ChEMBL document CHEMBL5512673, “Secondary Structure Stabilization of Macrocyclic Antimicrobial Peptides via Cross-Link Swapping” (J Med Chem, 2024) can be followed below.

SMILES strings stand for the structures. Values after ≈ are worked out from the molar mass of the structure shown. Active and inactive are the calls of the source. Bridge positions count the residues as written; N and C are the ends. Square brackets hold non-standard residues; d marks the D form. Peptide text beside a SMILES is read from it. Dab = NCC[C@H](N)C(=O)O; Dap = NC[C@H](N)C(=O)O Where only a bound is given, the exact number is not on record here.

Series [1] deals with Bacillus subtilis. The series is described as follows: Antibacterial activity against Bacillus subtilis assessed as reduction in bacterial cell viability incubated for 24 hrs by nutrient agar plate method. The class given is functional, organism-based.
Series [2] relates to Escherichia coli. In words: Antibacterial activity against Escherichia coli assessed as reduction in bacterial cell viability incubated for 24 hrs by nutrient agar plate method. The class given is functional, organism-based.
Series [3] in a line: Aggregation property of compound in aqueous solution assessed as critical micelle concentration by dynamic light scattering analysis. The class given is physicochemical. The settings on record: buffer.
For series [4], the system named is Bacillus subtilis. The series is described as follows: Antibacterial activity against Bacillus subtilis ATCC 6051 assessed as aggregation of bacteria into flakes at 2 to 50 uM incubated for 4 hrs by bacterial flocculation assay. The class given is functional, organism-based. The note with it: dose 2-50 µM.
Series [5] concerns Staphylococcus epidermidis. In words: Antibacterial activity against Staphylococcus epidermidis assessed as reduction in bacterial cell viability incubated for 24 hrs by nutrient agar plate method. In kind it is functional, organism-based.
The subject of series [6] is Bacillus subtilis. The series is described as follows: Antibacterial activity against Bacillus subtilis assessed as inhibition of bacterial growth incubated for 24 hrs by nutrient agar plate method. The class given is functional.
Series [7] relates to RAW264.7. In words: Anti-inflammatory activity in mouse RAW264.7 cells assessed as reduction in LPS-induced IL-10 production at 50 uM incubated for 24 hrs by ELISA. The class given is functional, cell-based.
Series [8] has as its system Escherichia coli. The series is described as follows: Antibacterial activity against Escherichia coli NEB 5alpha assessed as aggregation of bacteria into flakes at 2 to 50 uM incubated for 4 hrs by bacterial flocculation assay. The class given is functional, organism-based. The settings on record: dose 2-50 µM.
Series [9] relates to RAW264.7. The series is described as follows: Upregulation of IL-1beta production in mouse RAW264.7 cells at 50 uM incubated for 24 hrs by ELISA. In kind it is functional, cell-based.
The test system of series [10] is Staphylococcus epidermidis. The series is described as follows: Antibacterial activity against Staphylococcus epidermidis assessed as inhibition of bacterial growth incubated for 24 hrs by nutrient agar plate method. The class given is functional.
Series [11] relates to RAW264.7. In words: Cytotoxicity against mouse RAW264.7 cells assessed as reduction in cell viability at 100 uM incubated for 24 hrs by MTS assay. The class given is toxicity, cell-based. The settings on record: raw264.7, 24 h. Background: Tetrazolium assays rely on reduction of a dye to a coloured formazan, in cell work by metabolically active cells.
Series [12] has as its system Escherichia coli. In words: Antibacterial activity against Escherichia coli assessed as inhibition of bacterial growth incubated for 24 hrs by nutrient agar plate method. The class given is functional.
The test system of series [13] is RAW264.7. In words: Anti-inflammatory activity in mouse RAW264.7 cells assessed as reduction in LPS-induced IL-1beta production at 50 uM incubated for 24 hrs by ELISA. The class given is functional, cell-based. On the technique in general: ELISA stands for enzyme-linked immunosorbent assay.
Series [14] has as its system RAW264.7. The series is described as follows: Effect on IL-10 release in mouse RAW264.7 cells at 50 uM incubated for 24 hrs by ELISA. In kind it is functional, cell-based.
Series [15] concerns the target Trypsin (Homo sapiens, UniProt P07477+P07478+P35030). The series is described as follows: Stability of compound in PBS at […] assessed as trypsin (unknown origin)-mediated drug degradation measured after 3 to 60 mins using TAMRA-labelled compound by HPLC analysis. In kind it is ADME, protein assay. The note with it: buffer, time 3-60 min.
Series [16] relates to Micrococcus luteus. The series is described as follows: Antibacterial activity against Micrococcus luteus assessed as inhibition of bacterial growth incubated for 24 hrs by nutrient agar plate method. In kind it is functional.
For series [17], the system named is Micrococcus luteus. The series is described as follows: Antibacterial activity against Micrococcus luteus assessed as reduction in bacterial cell viability incubated for 24 hrs by nutrient agar plate method. In kind it is functional, organism-based.

As a reminder, the IC50 is the concentration that inhibits the measured activity by half. As usually defined, the MIC is the smallest concentration in the dilution series that meets the test's criterion for growth inhibition. On to `CC[C@H](C)[C@@H]1NC(=O)[C@H](CCCNC(=N)N)NC(=O)[C@H](Cc2ccccc2)NC(=O)[C@H](CCCCN)NC(=O)[C@H](Cc2ccccc2)NC(=O)[C@H](CCCNC(=N)N)NC(=O)[C@@H](N)CNC(=O)CC[C@@H](C(N)=O)NC(=O)[C@H]([C@@H](C)CC)NC(=O)[C@H](C(C)C)NC1=O` (H-[Dap]RFKFRIVIE-NH2; lactam 1-10), for which the IC50 was 36.2 µM in [1], 35.9 µM in [2] and 7.2 µM in series [5]. The CMC in series [3] worked out at 2.3 µM. Also, the outcome in series [4], in [7], in series [8], in series [9], in series [13] and in series [14] was Active. Further, the results for the MIC in series [6], in series [10] and in [12] were 100 µM (≈ 127 µg/mL), 40 µM (≈ 51 µg/mL) and 100 µM (≈ 127 µg/mL), respectively. In addition, in [11], the Activity entry is given as “Non-Toxic”.

For `CN(C)c1ccc2c(-c3ccc(C(=O)N[C@@H](Cc4ccc(O)cc4)C(=O)NCC(=O)N[C@@H](CCCNC(=N)N)C(=O)N[C@@H](CCCCN)C(=O)N[C@@H](CCCCN)C(=O)N[C@@H](CCCNC(=N)N)C(=O)N[C@@H](CCCNC(=N)N)C(=O)N[C@@H](CCC(N)=O)C(=O)N[C@@H](CCCNC(=N)N)C(=O)N[C@@H](CCCNC(=N)N)C(=O)N[C@@H](CCCNC(=N)N)C(=O)O)cc3C(=O)[O-])c3ccc(=[N+](C)C)cc-3oc2c1`, the Stability result in [15] was “Unstable”.

In the case of `CC[C@H](C)[C@@H]1NC(=O)[C@H](CCCNC(=N)N)NC(=O)[C@H](Cc2ccccc2)NC(=O)[C@H](CCCCN)NC(=O)[C@H](Cc2ccccc2)NC(=O)[C@H](CCCNC(=N)N)NC(=O)[C@@H](N)CCC(=O)NC[C@@H](C(N)=O)NC(=O)[C@H]([C@@H](C)CC)NC(=O)[C@H](C(C)C)NC1=O` (H-ERFKFRIVI[Dap]-NH2; lactam 1-10), the half-maximal inhibitory concentration (IC50) came to 38.5 µM in series [1], 41.5 µM in [2] and 10.2 µM in series [5]. Besides, the CMC in series [3] worked out at 10.8 µM. In addition, the outcome in series [4], in [7], in series [8], in series [9], in series [13] and in [14] was Active. In addition, the MIC is 100 µM (≈ 127 µg/mL) in [6], 40 µM (≈ 51 µg/mL) in series [10] and 80 µM (≈ 102 µg/mL) in series [12]. Besides, the Activity result in series [11] is “Non-Toxic”.

Take `CC[C@H](C)[C@@H]1NC(=O)[C@H](CCCNC(=N)N)NC(=O)[C@H](Cc2ccccc2)NC(=O)[C@H](CCCCN)NC(=O)[C@H](Cc2ccccc2)NC(=O)[C@H](CCCNC(=N)N)NC(=O)[C@@H](N)CCNC(=O)CC[C@@H](C(N)=O)NC(=O)[C@H]([C@@H](C)CC)NC(=O)[C@H](C(C)C)NC1=O` (H-[Dab]RFKFRIVIE-NH2; lactam 1-10): the IC50 in series [1] worked out at 15.4 µM; in series [2], 10.7 µM; in series [5], 3.9 µM; in series [17], 18 µM. The CMC in series [3] is above 100 µM. Moreover, the result in series [4], in [8], in series [9] and in [14] was Active. The MIC in series [6] was found to be 60 µM (≈ 77.3 µg/mL); in series [16], 80 µM (≈ 103 µg/mL); in [10] it was 20 µM (≈ 25.8 µg/mL); in series [12], 40 µM (≈ 51.5 µg/mL). The outcome in series [7] and in series [13] was inactive. For the same molecule, in [11], the Activity result is recorded as “Non-Toxic”.

For the molecule `CC[C@H](C)[C@@H]1NC(=O)[C@H](CCCNC(=N)N)NC(=O)[C@H](Cc2ccccc2)NC(=O)[C@H](CCCCN)NC(=O)[C@H](Cc2ccccc2)NC(=O)[C@H](CCCNC(=N)N)NC(=O)[C@@H](N)CSSC[C@@H](C(N)=O)NC(=O)[C@H]([C@@H](C)CC)NC(=O)[C@H](C(C)C)NC1=O` (H-CRFKFRIVIC-NH2; disulfide 1-10), the figures for the IC50 in [1], in series [2] and in series [5] were 461 µM, 32.2 µM and 8.5 µM, respectively. In addition, the CMC in series [3] came out at 4.5 µM. Moreover, the result in [4], in series [7], in series [8], in series [9], in series [13] and in series [14] was Active. The MIC in series [6] was determined as 100 µM (≈ 128 µg/mL); in [10], 50 µM (≈ 64.1 µg/mL); in [12], 80 µM (≈ 103 µg/mL). The Activity entry in [11] is “Non-Toxic”.

For the molecule `CC[C@H](C)[C@@H]1NC(=O)[C@H](CCCNC(=N)N)NC(=O)[C@H](Cc2ccccc2)NC(=O)[C@H](CCCCN)NC(=O)[C@H](Cc2ccccc2)NC(=O)[C@H](CCCNC(=N)N)NC(=O)[C@@H](N)CCC(=O)NCC[C@@H](C(N)=O)NC(=O)[C@H]([C@@H](C)CC)NC(=O)[C@H](C(C)C)NC1=O` (H-ERFKFRIVI[Dab]-NH2; lactam 1-10), the IC50 in series [1] amounted to 15 µM; in [2], 8.5 µM; in series [5], 3.5 µM; in series [17], 11.1 µM. Further, in [3], the CMC was above 100 µM. Also, the outcome in series [4], in series [8], in [9] and in series [14] was Active. The MIC in series [6] was 60 µM (≈ 77.3 µg/mL); in series [16] it was 80 µM (≈ 103 µg/mL); in series [10], 20 µM (≈ 25.8 µg/mL); in series [12] it was 40 µM (≈ 51.5 µg/mL). The outcome in series [7] and in series [13] was inactive. Besides, in series [11], the Activity result is reported as “Non-Toxic”.

Turning to `CC1(C)S[C@@H]2[C@H](NC(=O)[C@H](N)c3ccccc3)C(=O)N2[C@H]1C(=O)O` [AMPICILLIN], the IC50 was found to be 1 µM in [1], 1.5 µM in series [2], 8.5 µM in series [5] and 1.1 µM in series [17]. Further, the MIC in series [6] amounted to 25 µM (≈ 8.74 µg/mL); in series [16], 3.1 µM (≈ 1.08 µg/mL); in series [10], 50 µM (≈ 17.5 µg/mL); in series [12] it was 12.5 µM (≈ 4.37 µg/mL).
